{"source": "patent US8501245B2", "about": "“Selectively inhibiting estrogen production and providing estrogenic effects in the human body” (Morinda, Inc., priority 2000, dated 2013)", "tested_on": "ICR derived female immature mice", "assay": "Protocol # 531000 Estrogenic Agonism in Mice (uterine wet weight)", "format": "in vivo", "conditions": "0.03 mg/kg PO; for % Increase in uterine wet weight: compared with historical vehicle control (16.5 mg)", "description": "Tahitian Noni® Puree Juice Concentrate (TNPJC) dry form was evaluated for possible estrogenic agonism is ICT derived immature female mice at a maximum tolerated dose of 4000 mg/kg administered orally once daily for 3 consecutive days. The dry form of TNPJC resulted from using a Rotor Vap with pressure and low temperature.\nTest substance TNCONC was evaluated for possible Estrogenic Agonism in ICR derived female immature mice at a maximum tolerated dose of 4000 mg/kg administered orally once daily for 3 consecutive days.\n1. Test Substances and Dosing Pattern—TNCONC, provided by Morinda, Inc., was dissolved in 2% Tween 80/0.9% NaCl. For testing, a maximum tolerated dose of 4000 mg/kg was administered […] daily for 3 consecutive days, and a dosing volume of 10 ml/kg was used.\n2. Animals—Female ICR mice provided by MDS Pharma Services—Taiwan Ltd. were used. Space allocation for 5 animals was 29×18×13 cm. Animals were housed in APEC^R cages and maintained in a controlled temperature (22° C.-24° C.) and humidity (60%-80%) environment with 12 hours light dark cycles for at least one week in MDS Pharma Services—Taiwan Laboratory prior to use. Free access to standard lab chow for rats (Lab Diet, Rodent Diet, PMI Nutrition International, USA) and tap water was granted. All aspects of this work including housing, experimentation and disposal of animals were performed in general accordance with the International Guiding Principles for Biomedical Research Involving Animals (CIOMS Publication No. ISBN 92 90360194, 1985),\nTest substance was administered at a maximum tolerated dose of 4000 mg/kg IP for three consecutive days to a group of 5 ICR derived immature female mice weighing 13±1 g. The animals were sacrificed 24 hours after the final dose and wet weight of the uterus of each animal was measured. A 50 percent or more (≧50%) increase in uterine wet weight relative to control group of animals indicates possible estrogen agonist activity.\nA vehicle or test substance was administered IP for three consecutive days to female immature mice weighing 13±1 g. The animals were sacrificed 24 hours after the final dose and wet weight of the uterus of each animal was determined. A 50 percent or more (≧50%) increase in uterine wet weight relative to the vehicle treated group of animals, shown in parenthesis, indicates possible estrogen agonist activity.", "note": "Where “and” joins values, the source holds several entries; their conditions need not be identical. Identical values can stand only once."}
{"smiles": "C[C@]12CC[C@@H]3c4ccc(OC(=O)c5ccccc5)cc4CC[C@H]3[C@@H]1CC[C@@H]2O", "note": "[β-Estradiol 3-Benzoate]", "values": [{"measurement": "Weight of Uterus, Average", "value": 30.2, "unit": "mg"}, {"measurement": "% Increase in uterine wet weight", "value": "(83) %"}, {"measurement": "% Increase in uterine wet weight", "setting": "listed as Estradiol 3-Bensoate", "value": "dramatic increase"}, {"measurement": "% Increase in uterine wet weight", "setting": "listed as β-Estadiol 3-Benzoate", "value": 83, "unit": "%"}, {"measurement": "Weight of Uterus, Individual", "setting": "single animals N 1-5", "value": "28.7 mg and 20.7 mg and 31.3 mg and 35.6 mg and 34.9 mg"}]}
